Laboratory results as given in patent publication US11312950B2, “3D synthetic tissue hydrogels” (University of Massachusetts, priority 2017, dated 2022).

Legend:
hMSCs [1] = assay: Competitive binding assay: adhesion of hMSCs pre-treated with soluble peptides to a surface with the bone marrow peptide cocktail; type: cell-based, human; settings: 30 minutes pretreatment; glass surface with bone marrow integrin-binding peptide cocktail; three donor hMSCs and hTERT MSCs; 2 hours
Procedure: Cells were seeded at 4000 cells per cm^2 in their normal growth medium after 30 minutes of pretreatment with individual peptides or the complete bone marrow cocktail. Bone marrow was dosed at a molar amount of […] of medium and the molar amount dosed for each peptide was as follows: GRGDSPCG (SEQ ID NO:8)at 600 pmol/mL, CGPHSRNGGGGGGRGDS (SEQ ID NO:14), and […] (SEQ ID NO:18) at 220 pmol/mL, CGP(GPP)5GFOGER(GPP)5 (SEQ ID NO:15), CGGSVVYGLR (SEQ ID NO:13), and GPRGGC (SEQ ID NO:2)at 160 pmol/mL, CSVTCG (SEQ ID NO:4) and […] (SEQ ID NO:5) at 100 pmol/mL, GCGDGEA (SEQ ID NO:1), CSRARKQAASIKVAVADR (SEQ ID NO:3), GCKQLREQ (SEQ ID NO:6), and CGGAEIDGIEL (SEQ ID NO:16) at 60 pmol/mL, and GCDPGYIGSR (SEQ ID NO:7) at 40 pmol/mL. Cells were imaged cells beginning 10 minutes after seeding in an environment controlled Zeiss Axio Observer Z1 microscope (Carl Zeiss) using an AxioCam MRm camera and an EC Plan-Neofluar 20× 0.4 NA air objective. Images were taken using Zen (Carl Zeiss) at five-minute intervals for 2 hours and cell areas were traced in ImageJ (National Institutes of Health).

hMSCs [2] = assay: Outgrowth of hMSCs on beads in hydrogels made with a single MMP degradable crosslinker; type: cell-based, human; settings: versus control, non-degradable crosslinker
Procedure: (§1) Cytodex1 microcarrier beads (Sigma) were swollen in sterile IX PBS (1 g beads/50 mL PBS) and autoclaved for 30 minute at 121° C. Flasks were coated with poly (2-hydroxyethy methacrylate) suspended in ethanol at 20 mg/mL and allowed to evaporate in a biosafety cabinet for 1 hour to make they non-adherent. hMSCs were seeded at 10-50 cells/bead in non-adherent flasks at a 0.1 mL of beads/mL of media. The flask was shaken every 1 hour for 4 hours to ensure coating unto beads. Cells were allowed to grow on beads for 72 hours before seeding into hydrogels. Breast cancer cells were suspended in 4° C., poly(N-isopropylacryamide)-poly(ethylene glycol) (pNIPAAM-PEG, Cosmo Bio) reconstituted in cell culture medium at a density of 167,000 cells/mL of MDA-MB-231s. Gelation occurred after 5 min at 37° C., and gels were swollen in cell culture medium and grown into spheroids for 14 days. pNIPAAm gels were dissolved in cold serum-free DMEM (1% pen/strep) and spheroids transferred to conical tubes placed in ice so that spheroids would settle to the bottom. The supernatant was removed and the spheroids were re-suspended in PEG-maleimide solution. A ratio of 9 3D hydrogels were made for every 150 μL of pNIPAAM-PEG. Hydrogels were prepared with 4-arm PEG-maleimide at a 20 wt % cross-linked at a 1:1 molar ratio with 50% 1.5 K linear PEG-dithiol and 50% of each individual MMP degradable peptide sequence (FIGS. 13A-13C). Gels were imaged at days 1 and 3 and all image analysis was performed in ImageJ (National Institutes of Health).

MDA-MB-231 cells = assay: MDA-MB-231 spheroid growth in hydrogels with one MMP degradable crosslinker; type: cell-based, human; settings: spheroid size ratio
Procedure: as §1, with “Gels were imaged at days 1 and 3 and all image analysis was performed in ImageJ (National Institutes of Health).” left out

chick arotic cells = settings: cited from earlier work
myofibroblasts = settings: cited from earlier work

Substance	cell adhesion (cell area) after pre-treatment with soluble peptide (hMSCs [1])	hMSC cell branching into hydrogel (maximum branch length per bead) (hMSCs [2])	degradation of crosslinked gel by MDA-MB-231 spheroids (MDA-MB-231 cells)	ability of MMP peptide to degrade (chick arotic cells)	ability of MMP peptide to degrade (myofibroblasts)
CGP(GPP)5GFOGER(GPP)5 (CGPGPPGPPGPPGPPGPPGFGERGPPGPPGPPGPPGPP) [collagen I]	not significantly bound				
GCRDGPLGLWARDRCG [MMP-13 crosslinker, di-functional MMP degradable crosslinker peptide designed for MMP 13 (Collagenase-3)]		No significant hMSC cell branching	degradation in the MMP-13 crosslinked gel was observed		
GCRDSGESPAYYTADRCG [MMP-2 crosslinker, di-functional MMP degradable crosslinker peptide designed for MMP 2 (Gelatinase A)]		No significant hMSC cell branching	again not with the MMP 2 and 3 peptides	ability for these MMP peptides to degrade has been shown	
GCRDRPFSMIMGDRCG [MMP-3 crosslinker, di-functional MMP degradable crosslinker peptide designed for MMP 3 (Stromelysin-1)]		No significant hMSC cell branching	again not with the MMP 2 and 3 peptides		ability for these MMP peptides to degrade has been shown
CGGAEIDGIEL [tenascin C]	not significantly bound				
